In patent publication US20110117200A1 (ACTAVIS GROUP PTC EHF, priority 2008, published 2011):
Where a name gives a salt, the structure may show the parent alone.

Experiments:
[1] = sunflower oil dispersant; for Particle size (D90): size below which 90% of the particles by volume are found; for Particle size (D50): size below which 50% of the particles by volume are found
Protocol: Particle Size Distribution (PSD)” is determined by laser diffraction in a Malvern Master Sizer 2000 equipment or its equivalent: Measurement conditions:
As used herein, “Particle Size Distribution (P.S.D)” means the cumulative volume size distribution of equivalent spherical diameters as determined by laser diffraction in Malvern Master Sizer 2000 equipment or its equivalent.
As used herein, Dx means that X percent of the particles have a diameter less than a specified diameter D. Thus, a D90 or d(0.9) of less than 300 microns means that 90 volume-percent of the particles in a composition have a diameter less than 300 microns.
The important characteristics of the PSD were the (D90), which is the size, in microns, below which 90% of the particles by volume are found, and the (D50), which is the size, in microns, below which 50% of the particles by volume are found.

[2] = cited from earlier work
[3] = target: B-form of the enzyme monoamine oxidase (MAO-B) (Homo sapiens, UniProt P27338); conditions: qualitative statement in the background; cited from earlier work
Chain of B-form of the enzyme monoamine oxidase (MAO-B) (P27338 whole entry, species assumed): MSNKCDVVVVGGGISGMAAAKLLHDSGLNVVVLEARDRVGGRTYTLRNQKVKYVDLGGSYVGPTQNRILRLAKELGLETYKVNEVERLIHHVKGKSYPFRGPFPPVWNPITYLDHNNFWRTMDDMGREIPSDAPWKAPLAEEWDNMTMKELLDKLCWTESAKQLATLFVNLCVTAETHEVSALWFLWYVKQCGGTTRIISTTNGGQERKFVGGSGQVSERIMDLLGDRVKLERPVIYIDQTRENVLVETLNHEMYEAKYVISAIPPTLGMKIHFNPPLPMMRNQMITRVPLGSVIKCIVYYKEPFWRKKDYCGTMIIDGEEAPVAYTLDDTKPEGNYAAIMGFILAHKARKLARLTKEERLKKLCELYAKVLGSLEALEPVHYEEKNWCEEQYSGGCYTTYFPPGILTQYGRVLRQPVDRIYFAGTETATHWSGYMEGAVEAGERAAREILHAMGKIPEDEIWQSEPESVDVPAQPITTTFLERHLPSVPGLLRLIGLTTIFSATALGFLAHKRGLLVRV

| Compound | Particle size (D90) [1] | Particle size (D50) [1] | other results |
| --- | --- | --- | --- |
| C#CCN[C@@H]1CCc2ccccc21 [Example 4, rasagiline mesylate] | less than 400 microns | – | – |
| C#CCN[C@@H]1CCc2ccccc21.CS(=O)(=O)O [Rasagiline mesylate, rasagiline mesylate] | – | – | Solubility in ethanol ([2]; ethanol): freely soluble; Solubility in isopropanol ([2]; isopropanol): sparingly soluble; Solubility in water ([2]; water): freely soluble |
| C#CCN[C@@H]1CCc2ccccc21 [Example 2, rasagiline mesylate] | 1496 microns | 864 microns | – |
| C#CCN[C@@H]1CCc2ccccc21 [Example 3, rasagiline mesylate] | less than 300 microns | – | – |
| C#CCN[C@@H]1CCc2ccccc21 [Rasagiline, R(+)—N-propargyl-1-aminoindan] | – | – | Inhibition of MAO-B [3]: selective inhibitor |
| C#CCN[C@@H]1CCc2ccccc21 [Example 1, rasagiline mesylate] | 1407 microns | 663 microns | – |
